Laboratory results as given in BindingDB's records for doi:10.1021/jm800662z (Johnson & Johnson Pharmaceutical, 2008).

Target: T1, Tyrosine-protein kinase JAK3 (Homo sapiens, UniProt P52333)
T1 sequence (P52333 whole entry): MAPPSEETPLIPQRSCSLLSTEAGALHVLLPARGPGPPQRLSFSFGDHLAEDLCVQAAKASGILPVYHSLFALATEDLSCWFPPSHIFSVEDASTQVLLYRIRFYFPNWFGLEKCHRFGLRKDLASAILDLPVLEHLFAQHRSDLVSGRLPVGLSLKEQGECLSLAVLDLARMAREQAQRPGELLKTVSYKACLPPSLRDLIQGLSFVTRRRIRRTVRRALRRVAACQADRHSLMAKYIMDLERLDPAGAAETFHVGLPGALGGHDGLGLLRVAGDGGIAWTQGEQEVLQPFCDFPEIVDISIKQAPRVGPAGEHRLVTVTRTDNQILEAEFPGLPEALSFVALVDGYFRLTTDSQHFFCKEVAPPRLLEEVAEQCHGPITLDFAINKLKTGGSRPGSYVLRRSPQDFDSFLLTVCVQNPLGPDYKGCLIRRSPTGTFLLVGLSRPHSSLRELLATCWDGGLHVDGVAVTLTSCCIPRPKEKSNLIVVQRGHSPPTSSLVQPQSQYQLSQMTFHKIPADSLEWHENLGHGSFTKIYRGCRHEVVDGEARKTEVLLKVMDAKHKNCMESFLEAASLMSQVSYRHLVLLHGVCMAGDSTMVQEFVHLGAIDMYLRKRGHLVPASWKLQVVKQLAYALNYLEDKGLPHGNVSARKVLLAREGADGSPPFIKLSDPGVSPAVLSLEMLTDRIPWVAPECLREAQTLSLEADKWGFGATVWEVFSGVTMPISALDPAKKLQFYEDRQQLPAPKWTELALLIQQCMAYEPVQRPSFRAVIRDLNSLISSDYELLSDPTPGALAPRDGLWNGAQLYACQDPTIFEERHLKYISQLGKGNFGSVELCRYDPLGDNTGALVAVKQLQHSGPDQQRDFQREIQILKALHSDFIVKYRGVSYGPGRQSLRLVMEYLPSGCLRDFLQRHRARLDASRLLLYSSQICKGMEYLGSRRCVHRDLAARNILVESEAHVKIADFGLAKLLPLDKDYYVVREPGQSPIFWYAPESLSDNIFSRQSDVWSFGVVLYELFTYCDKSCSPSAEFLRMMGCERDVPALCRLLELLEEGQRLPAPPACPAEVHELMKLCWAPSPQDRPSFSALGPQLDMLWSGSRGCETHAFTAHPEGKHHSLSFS
Experiment: JAK3 Inhibition Assay
Details: pH 7.5; 22 °C
Procedure: An ELISA assay was used to determine the ability of inhibitor to inhibit JAK3 […] activity. The compounds were incubated with enzyme, 10 uM ATP, and biotinylated peptide substrate. Phosphorylated tyrosine was then detected by sequential incubation with anti-phosphotyrosine antibody.

- IC50: 957 nM
SMILES: O=C1c2ccccc2-c2n[nH]c3cccc1c23
